Measured values: the NIST ThermoML archive (doi:10.1016/j.jct.2017.03.026)
“And” between values parts separate entries of the source, which are not always exact repeats. Equal entries are not always repeated.

Experiment: molar heat capacity at constant pressure
Conditions: 101.33 kPa, Crystal, Small (less than 1 g) adiabatic calorimetry

O.O.O.O.O.O=S(=O)([O-])[O-].[Cu+2] [copper(II) sulfate pentahydrate]
Conditions	molar heat capacity at constant pressure
101.73 K	117.59 J/K/mol
101.86 K	118.59 J/K/mol
102.08 K	117.97 J/K/mol
102.79 K	118.7 J/K/mol
102.91 K	119.62 J/K/mol
103.83 K	120.63 J/K/mol
103.84 K	119.78 J/K/mol
103.89 K	120.08 J/K/mol
103.96 K	120.8 J/K/mol
104.14 K	120.09 J/K/mol
104.36 K	121.29 J/K/mol
104.89 K	120.9 J/K/mol
105.01 K	121.85 J/K/mol
105.93 K	122.01 J/K/mol
106.06 K	122.97 J/K/mol
106.2 K	122.39 J/K/mol
106.46 K	123.36 J/K/mol
106.97 K	123.24 J/K/mol
106.98 K	123.14 J/K/mol
107.12 K	123.92 J/K/mol
107.46 K	124.56 J/K/mol
108.03 K	124.25 J/K/mol
108.17 K	125.23 J/K/mol
108.27 K	124.44 J/K/mol
109.08 K	125.36 J/K/mol
109.1 K	126.13 J/K/mol
109.23 K	126.17 J/K/mol
110 K	126.2 J/K/mol
110.06 K	126.42 J/K/mol
110.13 K	126.46 J/K/mol
110.29 K	127.26 J/K/mol
110.33 K	126.54 J/K/mol
110.57 K	127.78 J/K/mol
111.18 K	127.44 J/K/mol
111.37 K	128.56 J/K/mol
111.74 K	128.74 J/K/mol
112.23 K	128.52 J/K/mol
112.4 K	128.7 J/K/mol
112.43 K	129.57 J/K/mol
113.16 K	129.6 J/K/mol
113.29 K	129.54 J/K/mol
113.49 K	130.69 J/K/mol
113.69 K	130.98 J/K/mol
114.34 K	130.68 J/K/mol
114.38 K	131.41 J/K/mol
114.47 K	130.81 J/K/mol
114.56 K	131.62 J/K/mol
115.39 K	131.78 J/K/mol
115.62 K	132.81 J/K/mol
116.25 K	132.9 J/K/mol
116.44 K	132.81 J/K/mol
116.54 K	133.18 J/K/mol
116.68 K	133.94 J/K/mol
116.81 K	134.01 J/K/mol
117.02 K	134.2 J/K/mol
117.5 K	133.84 J/K/mol
117.75 K	134.93 J/K/mol
118.55 K	134.96 J/K/mol
118.62 K	135 J/K/mol
118.81 K	136.22 J/K/mol
119.36 K	135.88 J/K/mol
119.63 K	136.14 J/K/mol
119.67 K	137.03 J/K/mol
119.88 K	137.17 J/K/mol
119.93 K	137.32 J/K/mol
120 K	136.3 J/K/mol
120.69 K	136.94 J/K/mol and 137.14 J/K/mol
120.95 K	138.19 J/K/mol
121.74 K	138.15 J/K/mol
122.02 K	139.11 J/K/mol
122.32 K	139.58 J/K/mol
122.46 K	138.97 J/K/mol
122.8 K	139.17 J/K/mol and 139.26 J/K/mol
123.07 K	140.4 J/K/mol
123.09 K	140.26 J/K/mol
123.86 K	140.26 J/K/mol
124.16 K	141.38 J/K/mol
124.88 K	141.31 J/K/mol
124.91 K	141.44 J/K/mol
124.97 K	142.22 J/K/mol
125.23 K	142.7 J/K/mol
125.57 K	142.11 J/K/mol
125.97 K	142.63 J/K/mol
126.2 K	143.67 J/K/mol
126.3 K	143.66 J/K/mol
126.97 K	143.36 J/K/mol
127.03 K	143.46 J/K/mol
127.37 K	144.66 J/K/mol
127.62 K	145 J/K/mol
128.08 K	144.35 J/K/mol
128.47 K	145.88 J/K/mol
128.7 K	145.15 J/K/mol
129.05 K	145.44 J/K/mol
129.14 K	145.37 J/K/mol
129.38 K	146.91 J/K/mol
129.54 K	146.79 J/K/mol
130 K	146.3 J/K/mol
130.2 K	146.58 J/K/mol
130.3 K	147.58 J/K/mol
130.62 K	147.67 J/K/mol
131.13 K	147.52 J/K/mol
131.25 K	147.55 J/K/mol
131.69 K	149.05 J/K/mol
131.82 K	148.2 J/K/mol
132.31 K	148.61 J/K/mol
132.53 K	150.01 J/K/mol
132.77 K	150.08 J/K/mol
132.95 K	150.13 J/K/mol
133.22 K	149.57 J/K/mol
133.37 K	149.93 J/K/mol
133.85 K	151.35 J/K/mol
134.43 K	150.8 J/K/mol
134.92 K	152.13 J/K/mol
134.93 K	151.23 J/K/mol
135.3 K	151.53 J/K/mol
135.49 K	151.95 J/K/mol
135.59 K	152.75 J/K/mol
135.69 K	153.09 J/K/mol
136 K	153.04 J/K/mol
136.56 K	152.7 J/K/mol
137.07 K	154.23 J/K/mol
137.39 K	153.55 J/K/mol
137.61 K	153.75 J/K/mol
138.05 K	154.26 J/K/mol
138.14 K	155.44 J/K/mol
138.23 K	155.31 J/K/mol
138.67 K	154.9 J/K/mol
138.85 K	156.32 J/K/mol
139.22 K	156.25 J/K/mol
139.47 K	155.53 J/K/mol
139.72 K	155.9 J/K/mol
140 K	156 J/K/mol
140.3 K	157.18 J/K/mol
140.78 K	156.94 J/K/mol
140.87 K	157.92 J/K/mol
141.16 K	157.45 J/K/mol
141.37 K	158.29 J/K/mol
141.56 K	157.55 J/K/mol
141.83 K	157.84 J/K/mol
142.01 K	159.46 J/K/mol
142.45 K	159.47 J/K/mol
142.89 K	158.79 J/K/mol
143.51 K	160.83 J/K/mol
143.52 K	160.62 J/K/mol
143.64 K	159.6 J/K/mol
143.94 K	159.82 J/K/mol
144.28 K	160.35 J/K/mol
144.6 K	161.74 J/K/mol
144.99 K	160.85 J/K/mol
145.18 K	162.59 J/K/mol
145.7 K	162.72 J/K/mol
145.73 K	161.63 J/K/mol
146.04 K	161.99 J/K/mol
146.16 K	163.13 J/K/mol
146.78 K	163.89 J/K/mol
147.09 K	162.84 J/K/mol
147.4 K	163.32 J/K/mol
147.81 K	163.57 J/K/mol
